Laboratory results from patent US12662491B2 (Redona Therapeutics, Inc., priority 2020, dated 2026).

Target: T1, Zcchc11 enzyme (Homo sapiens, UniProt Q5TAX3)
T1 construct: made in house; host or cells: HEK293 cells (Zcchc11); E. coli Rosetta II (LIN28A)
T1 sequence (Q5TAX3 212-1420): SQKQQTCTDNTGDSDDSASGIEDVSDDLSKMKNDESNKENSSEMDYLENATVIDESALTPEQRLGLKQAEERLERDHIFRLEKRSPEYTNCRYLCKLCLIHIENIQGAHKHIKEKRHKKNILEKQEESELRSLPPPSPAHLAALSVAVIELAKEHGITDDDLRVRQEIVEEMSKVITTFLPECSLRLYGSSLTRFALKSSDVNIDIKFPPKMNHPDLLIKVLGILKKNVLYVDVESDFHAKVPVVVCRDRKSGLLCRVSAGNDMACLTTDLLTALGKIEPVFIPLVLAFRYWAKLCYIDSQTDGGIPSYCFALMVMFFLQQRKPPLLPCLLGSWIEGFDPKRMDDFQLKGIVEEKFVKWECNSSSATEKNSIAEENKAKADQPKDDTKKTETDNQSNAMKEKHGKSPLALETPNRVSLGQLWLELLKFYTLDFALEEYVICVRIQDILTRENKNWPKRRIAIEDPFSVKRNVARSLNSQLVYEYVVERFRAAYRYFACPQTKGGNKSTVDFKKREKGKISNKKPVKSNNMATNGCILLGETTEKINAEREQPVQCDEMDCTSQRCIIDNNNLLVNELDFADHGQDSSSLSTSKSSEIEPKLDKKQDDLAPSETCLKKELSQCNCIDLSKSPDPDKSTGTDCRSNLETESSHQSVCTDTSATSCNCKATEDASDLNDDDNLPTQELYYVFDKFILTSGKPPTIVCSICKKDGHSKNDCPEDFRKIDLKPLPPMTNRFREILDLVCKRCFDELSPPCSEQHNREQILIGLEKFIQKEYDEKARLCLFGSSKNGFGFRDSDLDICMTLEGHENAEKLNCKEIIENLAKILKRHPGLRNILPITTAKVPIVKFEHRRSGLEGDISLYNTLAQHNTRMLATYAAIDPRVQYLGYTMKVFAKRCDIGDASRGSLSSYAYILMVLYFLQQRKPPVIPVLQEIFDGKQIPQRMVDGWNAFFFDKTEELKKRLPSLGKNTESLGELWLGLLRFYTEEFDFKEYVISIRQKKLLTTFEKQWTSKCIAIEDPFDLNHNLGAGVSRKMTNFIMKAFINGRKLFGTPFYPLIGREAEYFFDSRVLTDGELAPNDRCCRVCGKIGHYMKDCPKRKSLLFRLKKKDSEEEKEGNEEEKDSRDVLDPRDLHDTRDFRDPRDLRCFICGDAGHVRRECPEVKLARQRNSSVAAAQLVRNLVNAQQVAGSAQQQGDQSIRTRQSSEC
Test: TUTase assay (Zcchc11 assay, Lin28a-dependent polyuridylation of pre-let-7)
Type: biochemical
Conditions: Lin28a-dependent Zcchc11 (Z11) TUTase activity; read-out: Potency Lin28a-dep Z11 IC50
Summary of the method: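 Human Zcchc11 residues 212-1420 (HEK293-expressed, MBP tag cleaved, C-terminal FLAG) at 0.2 nM, with 10 nM full-length human LIN28A and 2 nM 5′-fluorescein pre-let-7, preincubated with compound 30 min at room temperature. Reaction started with 5 uM UTP plus 4 nM 3′-rhodamine A20 quench probe; fluorescein loss read kinetically, IC50 from initial rates.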

| SMILES | IC50 |
| --- | --- |
| Nc1cc(-n2cc(C(=O)O)c(=O)c3cc(Cl)c(N4CCC[C@@H]4COc4ncccc4Cl)cc32)ccn1 [Compound 209, (R)-1-(2-aminopyridin-4-yl)-6-chloro-7-(2-(((3-chloropyridin-2-yl)oxy)methyl)pyrrolidin-1-yl)-4-oxo-1,4-dihydro-quinoline-3-carboxylic acid] | ≤ 1000 nM |
| O=C(O)c1cn(C2CC(CO)C2)c2cc(N3CCC[C@@H]3COc3ccccn3)c(F)cc2c1=O (stereo partly drawn) [Compound 165, (R)-6-fluoro-1-(3-(hydroxy-methyl)cyclo-butyl)-4-oxo-7-(2-((pyridin-2-yloxy)methyl)pyrrolidin-1-yl)-1,4-dihydro-quinoline-3-carboxylic acid] | 10000 to 50000 nM |
| COc1cccc(-n2cc(C(=O)O)c(=O)c3cc(F)c(N4CCC[C@@H]4COc4ccccn4)cc32)c1 [Compound 146, (R)-6-fluoro-1-(3-methoxy-phenyl)-4-oxo-7-(2-((pyridin-2-yloxy)methyl)pyrrolidin-1-yl)-1,4-dihydro-quinoline-3-carboxylic acid] | ≤ 1000 nM |
| CN(C)C1CN(c2ccc(-n3cc(C(=O)O)c(=O)c4cc(Cl)c(N5CC6CC5(COc5ncccc5Cl)C6)cc43)cn2)C1 [Compound 221, 6-chloro-7-(1-[[(3-chloropyridin-2-yl)oxy]methyl]-2-azabicyclo [2.1.1]hexan-2-yl)-1-[6-[3-(dimethyl-amino)azetidin-1-yl]pyridin-3-yl]-4-oxoquinoline-3-carboxylic acid] | 1000 to 10000 nM |
| CC1(n2cc(C(=O)O)c(=O)c3cc(Cl)c(N4CCC4COc4ccccn4)cc32)CC1 (centres unmarked) [Compound 108, 6-chloro-1-(1-methyl-cyclopropyl)-4-oxo-7-(2-((pyridin-2-yloxy)methyl)azetidin-1-yl)-1,4-dihydro-quinoline-3-carboxylic acid] | 10000 to 50000 nM |

Next, values leading:

| IC50 | SMILES |
| --- | --- |
| 1000 to 10000 nM | O=C(O)c1cn(-c2ccc(O)cc2Cl)c2cc(N3CCC[C@@H]3COc3ccccn3)c(F)cc2c1=O [Compound 152, (R)-1-(2-chloro-4-hydroxy-phenyl)-6-fluoro-4-oxo-7-(2-((pyridin-2-yloxy)methyl)pyrrolidin-1-yl)-1,4-dihydro-quinoline-3-carboxylic acid] |
| ≤ 1000 nM | O=C(O)c1cn(-c2cnn(C3CNC3)c2)c2cc(N3CCC[C@@H]3COc3ncccc3Cl)c(Cl)cc2c1=O [Compound 243, 1-[1-(azetidin-3-yl)pyrazol-4-yl]-6-chloro-7-[(2R)-2-[[(3-chloropyridin-2-yl)oxy]methyl]pyrrolidin-1-yl]-4-oxoquinoline-3-carboxylic acid] |
| 1000 to 10000 nM | O=C(O)c1cn(-c2ccc(O)cc2)c2cc(N3CCC[C@@H]3COc3nccc4[nH]cnc34)c(F)cc2c1=O [Compound 116, (R)-7-(2-(((1H-imidazo[4,5-c]pyridin-4-yl)oxy)methyl)pyrrolidin-1-yl)-6-fluoro-1-(4-hydroxy-phenyl)-4-oxo-1,4-dihydro-quinoline-3-carboxylic acid] |
| ≤ 1000 nM | O=C(O)c1cn(-c2ccc(O)cc2F)c2cc(N3CCC[C@@H]3COc3cccnn3)c(F)cc2c1=O [Compound 135, (R)-6-fluoro-1-(2-fluoro-4-hydroxy-phenyl)-4-oxo-7-(2-((pyridazin-3-yloxy)methyl)pyrrolidin-1-yl)-1,4-dihydro-quinoline-3-carboxylic acid] |
| 1000 to 10000 nM | Cc1ccccc1OC[C@H]1CCCN1c1cc2c(cc1F)c(=O)c(C(=O)O)cn2-c1ccc(O)cc1 [Compound 105, (R)-6-fluoro-1-(4-hydroxy-phenyl)-4-oxo-7-(2-((o-tolyloxy)methyl)pyrrolidin-1-yl)-1,4-dihydro-quinoline-3-carboxylic acid] |

Same assay, conditions: Lin28a-dependent Zcchc11 (Z11) TUTase assay; read-out: Potency Lin28a-dep Z11 IC50

| SMILES | IC50 |
| --- | --- |
| CC(C)(C)OC(=O)NC1CC(n2cc(C(=O)O)c(=O)c3cc(Cl)c(N4CCC[C@@H]4COc4ncccc4Cl)cc32)C1 (stereo partly drawn) [Example 484, (R)-1-(3-((tert-butoxycarbonyl)amino)cyclobutyl)-6-chloro-7-(2-(((3-chloropyridin-2-yl)oxy)methyl)pyrrolidin-1-yl)-4-oxo-1,4-dihydroquinoline-3-carboxylic acid] | ≤ 1000 nM |
| O=C(O)c1cn(-c2ccc(N3CC(N4CCC4)C3)nc2)c2cc(N3CCC[C@@H]3COc3ncccc3Cl)c(Cl)cc2c1=O [Example 507, (R)-1-(6-([1,3′-biazetidin]-1′-yl)pyridin-3-yl)-6-chloro-7-(2-(((3-chloropyridin-2-yl)oxy)methyl)pyrrolidin-1-yl)-4-oxo-1,4-dihydroquinoline-3-carboxylic acid] | ≤ 1000 nM |
| CC(C)(C)OC(=O)N1CC(c2ccc(-n3cc(C(=O)O)c(=O)c4cc(Cl)c(N5CCC[C@@H]5COc5ncccc5Cl)cc43)cn2)C1 [Example 615, (R)-1-(6-(1-(tert-butoxycarbonyl)azetidin-3-yl)pyridin-3-yl)-6-chloro-7-(2-(((3-chloropyridin-2-yl)oxy)methyl)pyrrolidin-1-yl)-4-oxo-1,4-dihydroquinoline-3-carboxylic acid] | ≤ 1000 nM |
| CN(C)C1CN(c2ccc(-n3cc(C(=O)O)c(=O)c4cc(Cl)c(N5CCC[C@@H]5COC5CCOC5)cc43)cn2)C1 (stereo partly drawn) [Example 594, 6-chloro-1-(6-(3-(dimethylamino)azetidin-1-yl)pyridin-3-yl)-4-oxo-7-((2R)-2-(((tetrahydro-furan-3-yl)oxy)methyl)pyrrolidin-1-yl)-1,4-dihydroquinoline-3-carboxylic acid] | 1000 to 10000 nM |
| O=C(O)c1cn(C2CCn3ccnc3C2)c2cc(N3CCC[C@@H]3COc3ncccc3Cl)c(Br)cc2c1=O (stereo partly drawn) [Example 536, 6-bromo-7-((R)-2-(((3-chloropyridin-2-yl)oxy)methyl)pyrrolidin-1-yl)-4-oxo-1-(5,6,7,8-tetrahydroimidazo [1,2-a]pyridin-7-yl)-1,4-dihydroquinoline-3-carboxylic acid] | ≤ 1000 nM |

More lines, now with the values ahead:

| IC50 | SMILES |
| --- | --- |
| 1000 to 10000 nM | O=C(O)c1cn(-c2cc(F)ccc2Cl)c2cc(N3CCC[C@@H]3COc3ccccn3)c(F)cc2c1=O [Example 386, (R)-1-(2-chloro-5-fluorophenyl)-6-fluoro-4-oxo-7-(2-((pyridin-2-yloxy)methyl)pyrrolidin-1-yl)-1,4-dihydroquinoline-3-carboxylic acid] |
| ≤ 1000 nM | CN(C)C1CN(c2ccc(-n3cc(C(=O)O)c(=O)c4cc(F)c(N5CCC[C@@H]5COc5cc(OCc6ccccc6)ccn5)c(F)c43)cn2)C1 [Example 612, (R)-7-(2-(((4-(benzyloxy)pyridin-2-yl)oxy)methyl)pyrrolidin-1-yl)-1-(6-(3-(dimethylamino)azetidin-1-yl)pyridin-3-yl)-6,8 difluoro-4-oxo-1,4-dihydroquinoline-3-carboxylic acid] |
| ≤ 1000 nM | COCCN(C)C1CN(c2ccc(-n3cc(C(=O)O)c(=O)c4cc(F)c(N5CCC[C@@H]5COc5ncccc5Cl)cc43)cn2)C1 [Example 614, (R)-7-(2-(((3-chloropyridin-2-yl)oxy)methyl)pyrrolidin-1-yl)-6-fluoro-1-(6-(3-((2-methoxyethyl) (methyl)amino)azetidin-1-yl)pyridin-3-yl)-4-oxo-1,4-dihydroquinoline-3-carboxylic acid] |
| ≤ 1000 nM | CN(C)C1CN(c2ccc(-n3cc(C(=O)O)c(=O)c4cc(Cl)c(N5CC(c6ccccc6)C[C@@H]5COc5ncccc5Cl)cc43)cn2)C1 (stereo partly drawn) [Example 593, 6-chloro-7-((2R)-2-(((3-chloropyridin-2-yl)oxy)methyl)-4-phenyl-pyrrolidin-1-yl)-1-(6-(3-(dimethylamino)azetidin-1-yl)pyridin-3-yl)-4-oxo-1,4-dihydroquinoline-3-carboxylic acid] |
| 1000 to 10000 nM | COc1cc2c(=O)c(C(=O)O)cn(-c3ccc(N4CC(N(C)C)C4)nc3)c2cc1N1CCC[C@@H]1COc1ncccc1Cl [Example 524, (R)-7-(2-(((3-chloropyridin-2-yl)oxy)methyl)pyrrolidin-1-yl)-1-(6-(3-(dimethylamino)azetidin-1-yl)pyridin-3-yl)-6-methoxy-4-oxo-1,4-dihydroquinoline-3-carboxylic acid] |
